Data reported in ChEMBL document CHEMBL1201862, “PubChem BioAssay data set” (2004).
The source made the active and inactive calls. No stated cut-off is given here; in the data, actives have a measured IC50 and inactives only a lower limit.

Target: Envelope glycoprotein gp160 (Human immunodeficiency virus 1, UniProt Q6QLK5)
Assay: inhibitors of HIV fusion peptide binding, primary screen, biochemical, uHTS, fluorescence dequenching (AID 1986)

Chain of Envelope glycoprotein gp160 (Q6QLK5 whole entry, the tested form may be a part): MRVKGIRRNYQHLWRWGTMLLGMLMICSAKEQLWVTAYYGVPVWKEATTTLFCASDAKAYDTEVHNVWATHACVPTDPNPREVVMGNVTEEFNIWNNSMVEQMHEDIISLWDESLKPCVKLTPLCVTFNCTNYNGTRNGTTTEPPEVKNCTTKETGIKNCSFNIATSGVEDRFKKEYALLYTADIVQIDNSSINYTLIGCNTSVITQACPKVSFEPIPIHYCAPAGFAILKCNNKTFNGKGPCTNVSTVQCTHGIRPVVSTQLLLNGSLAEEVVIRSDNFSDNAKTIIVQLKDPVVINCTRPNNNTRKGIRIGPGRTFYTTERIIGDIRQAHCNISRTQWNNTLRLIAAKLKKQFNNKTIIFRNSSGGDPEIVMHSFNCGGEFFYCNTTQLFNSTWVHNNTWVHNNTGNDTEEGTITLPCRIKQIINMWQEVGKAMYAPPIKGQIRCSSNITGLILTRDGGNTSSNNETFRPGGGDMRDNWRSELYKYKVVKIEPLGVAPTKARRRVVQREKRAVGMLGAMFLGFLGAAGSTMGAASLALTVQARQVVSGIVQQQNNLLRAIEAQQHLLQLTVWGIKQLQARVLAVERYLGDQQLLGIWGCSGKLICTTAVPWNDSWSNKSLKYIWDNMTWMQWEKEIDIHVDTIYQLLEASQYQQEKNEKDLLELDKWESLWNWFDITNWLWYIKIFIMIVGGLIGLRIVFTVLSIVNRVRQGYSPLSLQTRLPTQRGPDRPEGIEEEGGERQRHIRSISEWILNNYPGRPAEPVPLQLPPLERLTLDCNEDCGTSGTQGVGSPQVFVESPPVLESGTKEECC

**Q.** Cc1cccc(C)c1-n1cccc1/C=C1\SC(=S)N(c2cccc(C(=O)O)c2)C1=O was tested. Which IC50 did it give?
**A.** 22.4 µM (active)

**Q.** For CCCOc1ccc(C(=O)NNC(=S)NC(=O)c2cc(-c3ccccc3)nc3ccccc23)cc1, which IC50 is on record?
**A.** 30.9 µM (active)

**Q.** For CCC(C)(C)C1CCc2c(sc(NC(=O)c3ccccc3C(=O)O)c2C#N)C1 (stereo not drawn), which IC50 is on record?
**A.** 12.9 µM (active)
